The source of these data is US8609733B2, “Sensory-specific local anesthesia and prolonged duration local anesthesia” (Massachusetts Institute of Technology, priority 2008, dated 2013).

Values joined by “and” are separate entries in the source; they are usually repeats but may differ in a detail not shown here. Identical values can stand only once.

Common to all, as to format: in vivo, Sprague-Dawley rats
Assay [1] deals with sciatic nerve. Nature of the assay: Sensory selectivity of sciatic nerve blockade (thermal nociceptive versus motor block). The following applies: for selective thermal nociceptive blockade as compared to motor blockade: in combination with OTAB (Example 3: 100 mM QX-222, 30 mM OTAB). On the procedure: (§1) Animals were cared for in compliance with protocols approved by the Massachusetts Institute of Technology (MIT) Committee on Animal Care, in conformity with the NIH guidelines for the care and use of laboratory animals (NIH publication #85-23, revised 1985). Rats were anesthetized using isoflurane in oxygen. A 25-gauge needle was introduced posteromedial to the greater trochanter, and 300 μL of the QX-314+/−enhancer solution was injected upon contacting bone. To determine the effect of QX-314 on sensory and motor blockade, animals were injected with QX-314 at different concentrations. To determine the effect of the chemical penetration enhancer (OTAB) on the sensory and motor blockade produced by QX-314, animals were injected with different concentrations of OTAB, with the concentration of QX-314 kept constant at 25 mM.
(§2) In all experiments, the experimenter was blinded as to what treatment any given rat had received. Presence and extent of nerve blockade was investigated as previously described (Kohane, et al., Anesthesiology, 89:1199-1208 (1998); Padera, et al., Muscle Nerve, 34:747-53 (2006); Kohane, et al., Anesthesiology, 89:119-31 (1998); Masters, et al., Anesthesiology, 79(2):340-346 (1993)). Briefly, thermal nociception of each leg was assessed, with the right (uninjected) leg serving as an untreated control.
(§3) Thermal nociception was assessed by a modified hotplate test. Hind paws were exposed in sequence (left then right) to a 56° C. hot plate (Model 39D Hot Plate Analgesia Meter, IITC Inc., Woodland Hills, Calif.). The time (latency) until paw withdrawal was measured with a stopwatch.
(§4) The duration of thermal nociceptive block was calculated as the time required for thermal latency to return to a value of 7 seconds from a higher value. Seven seconds is the midpoint between a baseline thermal latency of approximately 2 seconds in adult rats and a Maximal latency of 12 seconds. Latencies greater than 7 sec were considered to be effective blocks.
(§5) The rat was held with its posterior placed at a digital balance on which it could bear weight with one hindpaw at a time. The maximum weight that the rat could bear without its ankle touching the balance was measured.
(§6) Methods were as described in Example 1.
(§7) To establish that the selective block could be obtained with other local anesthetics, the methods of example 1 were performed using 100 mM QX-222 and 30 mM OTAB, and compared to the results obtained using 100 mM […] and 30 mM OTAB.

Assay [2] deals with sciatic nerve. Nature of the assay: Duration of thermal nociceptive (sensory) block after sciatic nerve injection, modified hotplate test. On the procedure:
(§8) Young adult male Sprague-Dawley rats (350-420 g) were obtained from Charles River Laboratories (Wilmington, Mass.) and housed in groups of two per cage on a 6 a.m. to 6 p.m. light/dark cycle. All animals were cared for in accordance with protocols approved institutionally and nationally.
(§9) QX-314 and octyltriethylammonium bromide (OTAB) (Sigma) solutions were prepared in saline individually and in combination with each enhancer the night before scheduled injections.
as §1, §2, §3, §4, §6, §7

Assay [3] concerns sciatic nerve. Nature of the assay: Duration of motor block after sciatic nerve injection, extensor postural thrust (EPT). As to the method: as §8, §9, §1, §2, §5, §6, §7
[4] abbreviates: 25 mM QX-314 co-injected with 5 mM SOS.
Setting [5] is: 25 mM QX-314 co-injected with 10 mM SOS.
Where [6] appears, read: 25 mM QX-314 co-injected with 0.5% TWEEN 20.
[7] abbreviates: QX-314 without CPE, different concentrations, 300 μl.

For the molecule `CC[N+](CC)(CC)CC(=O)Nc1c(C)cccc1C` [QX-314, N-(2,6)dimethylphenylcarbamoylmethyl triethylammonium bromide], the sensory selectivity entry in assay [1] (25 mM QX-314 co-injected with SOS 5, 10, 20, 30 mM) is given as “sensory selectivity at all concentrations of SOS”. Further, the sensory specificity result in assay [1] (25 mM QX-314 with higher OTAB concentrations (>30 mM)) is listed as “no sensory specificity”. Also, the specificity of block result in assay [1] (25 mM QX-314 with higher SOS concentrations (10-30 mM)) was “initially non-specific”. The “sensory versus motor block duration” value in assay [1] (25 mM QX-314 with lower concentrations of OTAB (10-30 mM)) is “significant increase in sensory block duration, without a corresponding increase in motor block duration”. In addition, the modality specificity result in assay [1] (QX-314 in the absence of a CPE) is recorded as “no evidence of modality specificity”. Moreover, the “TWEEN 20 concentration of maximum sensory specificity (optimal)” value in assay [1] (co-injected with 25 mM QX-314) came to 0.5%. In addition, in assay [1], the “selective thermal nociceptive blockade as compared to motor blockade” value is on record as “Comparable selective thermal nociceptive blockade”. Further, the “SOS concentration range with sensory selectivity” value in assay [1] (with 25 mM QX-314) lay within 1 to 50 mM. Further, the “optimal OTAB concentration for sensory selectivity” value in assay [1] (with 25 mM QX-314) worked out at 20 mM. In addition, the sensory block was 235 min in assay [2] (setting [4]) and 870 min in assay [2] (setting [5]). For the same molecule, the “sensory DEB (duration of effective block)” value in assay [2] (25 mM QX-314 co-injected with 20 mM OTAB) is 428 min and 406 min. The “duration of sensory block” value in assay [2] (25 mM QX-314 co-injected with 30 mM OTAB) was determined as 450 min. Also, the median sensory blockade in assay [2] (setting [6]) amounted to 269 min. Further, in assay [2] (setting [7]), the “sensory duration of block versus concentration” value is “concentration-dependent increase”. In addition, the “duration of motor block” value in assay [3] (25 mM QX-314 alone, 300 μL at the sciatic nerve, rat) was 165 min. The values for the motor block in assay [3] (setting [4]) and in assay [3] (setting [5]) were 0 min and 532 min, respectively. In assay [3] (25 mM QX-314 co-injected with 20 mM or 30 mM OTAB), the motor effect result is given as “little or no motor effect”. The median motor blockade in assay [3] (setting [6]) was 0 min. The “motor duration of block versus concentration” value in assay [3] (setting [7]) was “concentration-dependent increase”.
Turning to `Cc1cccc(C)c1NC(=O)C[N+](C)(C)C` [QX-222, 2-((2,6-dimethylphenyl)amino)-N,N,N-trimethyl-2-oxoethanaminium], in assay [1], the “selective thermal nociceptive blockade as compared to motor blockade” value is on record as “Comparable selective thermal nociceptive blockade”.
